Measured values published in US20230270677A1, “LONG-ACTING THERAPEUTIC AGENT COMBINATIONS AND METHODS THEREOF” (University of Washington, priority 2020, published 2023).
Like-named read-outs stand apart in the source and are kept apart here.

What was measured:
[1] = cited from earlier work
[2] = cited from earlier work; remark: listed apart in the source
HIV-1 = details: read-out: therapeutically effective plasma concentration (EC50); cited from earlier work
[3] = cited from earlier work; remark: listed apart in the source
[4] = Plasma pharmacokinetics after single subcutaneous dose in non-human primates (DcNP or free drug combination); details: for half-life: monkey, sc
Procedure: To evaluate whether presenting the three drugs—e.g., DTG-3TC-TFV, LPV-RTV-TFV, EFV-LPV-TFV, ATZ-RTV-TFV or 4 drugs—e.g., LPV-RTV-3TC-TFV in a combination nanosuspension using DcNP platform could provide long-acting plasma and intracellular drug exposure, macaques were subcutaneously administered with either DcNP formulated or soluble free drug combination. The free-drug combination (control) arm consisted of two groups. In the control group, 2-4 macaques were administered at an indicated single subcutaneous dose where equivalent dug combinations are dissolved in DMSO and diluted with water.
Whole blood in EDTA tubes was immediately centrifuged and plasma was removed and frozen at −80° C. until LC-MS/MS analysis.
Plasma drug concentrations were reported in units of nM. Non-compartmental parameters were estimated from plasma profiles for free and DcNP formulations using Phoenix WinNonlin (Certara, Princeton, N.J.). The following non-compartmental parameters were estimated: area under the plasma concentration-time curve (AUC) extrapolated to infinity; terminal half-life (t1/2); apparent clearance (CL/F); and mean body residence time (MBRT) based on moments extrapolated to infinity.

Molecule	Oral single dose formulation (plasma half-life, hours) ([2]; oral) [h]	EC50 (HIV-1) [nM]	Water solubility [3] [µg/mL]	log P [1]	also measured
C[C@@H]1CCO[C@H]2Cn3cc(C(=O)NCc4ccc(F)cc4F)c(=O)c(O)c3C(=O)N12 [Dolutegravir]	23	0.02 to 2.14	< 95	–	log P ([1]; listed as DTG): > 2; half-life ([4]; plasma): > 400 h
O=C1Nc2ccc(Cl)cc2[C@@](C#CC2CC2)(C(F)(F)F)O1 [Efavirenz]	–	–	0.00855	4	–
Cc1cccc(C)c1OCC(=O)N[C@@H](Cc1ccccc1)[C@@H](O)C[C@H](Cc1ccccc1)NC(=O)[C@H](C(C)C)N1CCCNC1=O [Lopinavir, (2S)—N-[(2S,4S,5S)-5-[[2-(2,6-dimethylphenoxy)acetyl]amino]-4-hydroxy-1,6-diphenylhexan-2-yl]-3-methyl-2-(2-oxo-1,3-diazinan-1-yl)butanamide]	–	10 to 27	–	–	Oral single dose formulation (plasma half-life, hours) ([2]; in vivo, po): 2.5 h; half-life ([4]; in vivo): 250 to 350 h
Cc1cc(/C=C/C#N)cc(C)c1Nc1ccnc(Nc2ccc(C#N)cc2)n1 [Rilpivirine, 4-[[4-[4-[(E)-2-cyanoethenyl]-2,6-dimethylanilino]pyrimidin-2-yl]amino]benzonitrile]	–	0.7 to 1.1	–	4.5	–
CC(C)c1nc(CN(C)C(=O)N[C@H](C(=O)N[C@@H](Cc2ccccc2)C[C@H](O)[C@H](Cc2ccccc2)NC(=O)OCc2cncs2)C(C)C)cs1 [Ritonavir, 1,3-thiazol-5-ylmethyl N-[(2S,3S,5S)-3-hydroxy-5-[[(2S)-3-methyl-2-[[methyl-[(2-propan-2-yl-1,3-thiazol-4-yl)methyl]carbamoyl]amino]butanoyl]amino]-1,6-diphenylhexan-2-yl]carbamate]	2.5	3.8 to 153	–	–	half-life ([4]; plasma): 250 to 350 h
C[C@H](Cn1cnc2c(N)ncnc21)OCP(=O)(O)O [Tenofovir, [(2˜{R})-1-(6-aminopurin-9-yl)propan-2-yl]oxymethylphosphonic acid]	–	40 to 8500	13000	−1.6	–
[(2˜{R})-1-(6-aminopurin-9-yl)propan-2-yl]oxymethylphosphonic acid [Tenofovir]	8 to 17	–	–	–	DcNP formulation (non-human primates) (plasma half-life, hours) ([4]; DcNP formulation, non-human primates): >200 to 350 h
